Source: patent US20230220010A1, “BROAD-SPECTRUM ANTIVIRAL PEPTIDES” (priority 2020, published 2023)
pEC50: −log10 of the molar value. Entries after “also recorded” stand apart in the source; their conditions may differ. Square brackets hold non-standard residues; d marks the D form. Ends that are not written are not given here. Peptide text beside a SMILES is read from it.

Key:
H3N2 influenza virus = settings: for pEC50: influenza virus
HEK 293T/17 cells = experiment: Cytotoxicity assay, CELLTITER-GLO, HEK cells; settings: for cell viability, HEK 293T/17 cells: peptide concentrations approximately below 4 μM, about 72 hours; for cytotoxicity against HEK cells: CELLTITER-GLO, 3 days
[1] = test system: Lassa pseudovirus (LASVpv); settings: for pEC50: 72 h
[2] = Cytotoxicity assay, ALAMARBLUE, HEK cells
Vero E6 cells = experiment: Cytotoxicity assay, CELLTITER-GLO, Vero E6 cells; settings: peptide concentrations at or below 2 μM, about 72 hours
dengue virus type 2 = settings: read-out: EC50 against dengue virus (DENV); plaque assay
HEK cells [3] = experiment: Cytotoxicity with varying cell densities, HEK cells; settings: 5×10^3 to 1×10^5 cells/well
HEK cells [4] = experiment: Cytotoxicity with varying serum (FBS) concentrations, HEK cells; settings: for effect of serum concentration on cytotoxicity: 0-50% FBS
HEK cells [5] = experiment: Cytotoxicity assay, ALAMARBLUE, HEK cells; settings: HEK cells with or without LASVpv, ALAMARBLUE
human adenovirus 5 = settings: read-out: EC50 against adenovirus (AdV); plaque assay
[6] = test system: Lassa pseudovirus (LASVpv); settings: 1 h, 50 μM

Compound	pEC50 (H3N2 influenza virus)	pEC50 [1]	pEC50 [2]	also measured
CC(C)C[C@@H](NC(=O)[C@@H](C)NC(=O)[C@@H](Cc1c[nH]c2ccccc12)NC(=O)CNC(=O)[C@@H](CCCNC(=N)N)NC(=O)[C@H](N)CCCNC(=N)N)C(=O)N[C@H](CCCNC(=N)N)C(=O)N[C@H](CC(C)C)C(=O)N[C@@H](C(=O)N[C@H](CC(C)C)C(=O)N[C@H](C)C(=O)N[C@H](Cc1ccc(O)cc1)C(N)=O)C(C)C [*arva] (H-[dR][dR]G[dW][dA][dL][dR][dL][dV][dL][dA][dY]-NH2)	6.40	–	–	–
CC(C)C[C@@H](NC(=O)[C@@H](Cc1c[nH]c2ccccc12)NC(=O)CNC(=O)[C@@H](CCCNC(=N)N)NC(=O)[C@H](N)CCCNC(=N)N)C(=O)N[C@H](CC(C)C)C(=O)N[C@H](CC(C)C)C(=O)N[C@H](CCCNC(=N)N)C(=O)N[C@H](CC(C)C)C(=O)N[C@H](CC(C)C)C(=O)N[C@H](CCCNC(=N)N)C(=O)N[C@H](CC(C)C)C(=O)N[C@H](CC(C)C)C(=O)N[C@H](CC(C)C)C(=O)N[C@H](CCCNC(=N)N)C(=O)N[C@H](CC(C)C)C(=O)N[C@H](CC(C)C)C(=O)N[C@H](Cc1c[nH]c2ccccc12)C(=O)NCC(=O)N[C@H](CCCNC(=N)N)C(=O)N[C@H](CCCNC(=N)N)C(N)=O [D-AHR, rrgwlllrllrlllrllwgrr] (H-[dR][dR]G[dW][dL][dL][dL][dR][dL][dL][dR][dL][dL][dL][dR][dL][dL][dW]G[dR][dR]-NH2)	–	–	–	cell viability, HEK 293T/17 cells (HEK 293T/17 cells): high cell viability
CC(C)C[C@@H](NC(=O)[C@@H](C)NC(=O)[C@@H](CC(C)C)NC(=O)[C@@H](CCCCN)NC(=O)[C@@H](CC(C)C)NC(=O)[C@@H](CO)NC(=O)[C@@H](Cc1ccccc1)NC(=O)CNC(=O)[C@@H](CCCNC(=N)N)NC(=O)[C@H](N)CCCNC(=N)N)C(=O)N[C@H](CC(C)C)C(=O)N[C@H](CCCCN)C(=O)N[C@H](CC(=O)O)C(=O)NCC(=O)N[C@H](Cc1c[nH]c2ccccc12)C(=O)N[C@H](CC(C)C)C(=O)N[C@H](CC(C)C)C(=O)N[C@H](CC(C)C)C(=O)N[C@H](CCCNC(=N)N)C(=O)N[C@H](CC(C)C)C(=O)NCC(=O)N[C@H](Cc1ccc(O)cc1)C(=O)NCC(=O)N[C@H](CCCNC(=N)N)C(=O)N[C@H](CCCNC(=N)N)C(N)=O [D-IT1b, rrgfslklallkdgwlllrlgygrr] (H-[dR][dR]G[dF][dS][dL][dK][dL][dA][dL][dL][dK][dD]G[dW][dL][dL][dL][dR][dL]G[dY]G[dR][dR]-NH2)	–	–	–	cell viability, HEK 293T/17 cells (HEK 293T/17 cells): high cell viability
CC(C)C[C@@H](NC(=O)[C@@H](Cc1c[nH]c2ccccc12)NC(=O)CNC(=O)[C@@H](CCCNC(=N)N)NC(=O)[C@H](N)CCCNC(=N)N)C(=O)N[C@H](CC(C)C)C(=O)N[C@H](CC(C)C)C(=O)N[C@H](CCCNC(=N)N)C(=O)N[C@H](CC(C)C)C(=O)N[C@H](CC(C)C)C(=O)N[C@H](CC(C)C)C(=O)N[C@H](Cc1c[nH]c2ccccc12)C(=O)NCC(=O)N[C@H](CCCNC(=N)N)C(=O)N[C@H](CCCNC(=N)N)C(N)=O [D-TL3, rrgwlllrlllwgrr] (H-[dR][dR]G[dW][dL][dL][dL][dR][dL][dL][dL][dW]G[dR][dR]-NH2)	–	–	–	cell viability, HEK 293T/17 cells (HEK 293T/17 cells): high cell viability
CC(C)C[C@@H](NC(=O)[C@@H](Cc1c[nH]c2ccccc12)NC(=O)[C@@H](CCCNC(=N)N)NC(=O)[C@H](N)CCCNC(=N)N)C(=O)N[C@H](CC(C)C)C(=O)N[C@H](CC(C)C)C(=O)N[C@H](CC(C)C)C(=O)N[C@H](CC(N)=O)C(=O)N[C@H](CC(C)C)C(=O)N[C@H](CC(C)C)C(=O)N[C@H](CC(C)C)C(=O)N[C@H](CC(C)C)C(=O)N[C@H](Cc1c[nH]c2ccccc12)C(=O)N[C@H](CCCNC(=N)N)C(=O)N[C@H](CCCNC(=N)N)C(N)=O [D-TL4NdG, rrwllllnllllwrr] (H-[dR][dR][dW][dL][dL][dL][dL][dN][dL][dL][dL][dL][dW][dR][dR]-NH2)	–	–	–	cell viability, HEK 293T/17 cells (HEK 293T/17 cells): high cell viability
CC[C@H](C)[C@H](NC(=O)CN)C(=O)NCC(=O)N[C@@H](C)C(=O)N[C@H](C(=O)N[C@@H](CC(C)C)C(=O)N[C@@H](CCCCN)C(=O)N[C@H](C(=O)N[C@@H](CC(C)C)C(=O)N[C@H](C(=O)N[C@H](C(=O)NCC(=O)N[C@@H](CC(C)C)C(=O)N1CCC[C@H]1C(=O)N[C@@H](C)C(=O)NCC(=O)N[C@H](C(=O)N[C@@H](CO)C(=O)N[C@@H](Cc1c[nH]c2ccccc12)C(=O)N[C@H](C(=O)N[C@@H](CCCCN)C(=O)N[C@@H](CCCNC(=N)N)C(=O)N[C@@H](CCCCN)C(=O)N[C@@H](CCCNC(=N)N)C(=O)N[C@@H](CCC(N)=O)C(=O)N[C@@H](CCC(N)=O)C(N)=O)[C@@H](C)CC)[C@@H](C)CC)[C@@H](C)O)[C@@H](C)O)C(C)C)C(C)C [Mel-L16G, reference compound]	–	4.55	4.68	–
GIGAVLKGLATGLPAGISWIKQQAQL-NH2 [MelN4, reference compound]	–	< 4.00	< 4.00	–
KDGWLLLRLGYGRR [Cterm-Cat]	–	–	–	antiviral activity against LASVpv [1]: next most active peptide
KLALLKDGWLLLR [Mid-Cat]	–	–	–	antiviral activity against LASVpv [1]: moderate potency
LALLKDGWLLL [Mid]	–	–	–	antiviral activity against LASVpv [1]: no antiviral activity
PLZYLRLLRGQF [TP2, reference compound]	–	–	–	activity against H3N2 (H3N2 influenza virus): some antiviral activity
RRGFSLKLALLKDGWLLLLRLGYGRR-NH2 [IT1-f]	5.82	5.96	4.70	–
RRGFSLKLALLKDGWLLLRLGYGRR-NH2 [IT1-b]	5.64	5.85	< 4.12	cell viability, Vero E6 cells (Vero E6 cells): High cell viability; pEC50 (dengue virus type 2): 6.65; effect of cell density on cytotoxicity (HEK cells [3]): remained consistent as cell density increases; effect of serum concentration on cytotoxicity (HEK cells [4]): far less cytotoxic as serum concentration increases; cell viability in the presence and absence of virus (HEK cells [5]): varies in the presence and absence of virus
RRGFSLKLALLYRGWLLLLRLGYGRR-NH2 [IT1-c]	5.92	–	–	–
RRGFSLKLKLLYRGWALALRLGYGRR-NH2 [IT1-e]	6.22	5.92	< 4.30	–
RRGFSLKLLLSYRGWALLRLGYGRR-NH2 [IT1-a]	5.80	5.80	4.72	cell viability in the presence and absence of virus (HEK cells [5]): varies in the presence and absence of virus

Compound	pEC50 (H3N2 influenza virus)	pEC50 [1]	pEC50 [2]	also measured
RRGFSLKLRLLYRGWGLALRLGYGRR-NH2 [IT1-d]	6.40	5.89	< 4.00	–
RRGWALRLNLYYGRR-NH2 [*ARNY*, RRGWALRLNLYYGRR]	5.35	5.66	< 4.00	cell viability in the presence and absence of virus (HEK cells [5]): no difference
RRGWALRLVLAY-NH2 [*ARVA, RRGWALRLVLAY]	6.05	5.21	< 4.12	–
RRGWGLRLVLYYGRR-NH2 [*GRVY*, RRGWGLRLVLYYGRR]	5.04	5.68	–	–
RRGWLLLLNLLLLWGRR-NH2 [TL4N, RRGWLLLLNLLLLWGRR]	–	–	–	CC50 compared to IT1b (HEK 293T/17 cells; % greater than that of IT1b, HEK cells): over 500%; cytotoxicity against HEK cells (HEK 293T/17 cells): much less cytotoxic than TL3
RRGWLLLRLLLWGRR-NH2 [TL3, RRGWLLLRLLLWGRR]	–	–	–	cell viability, Vero E6 cells (Vero E6 cells): High cell viability; effect of cell density on cytotoxicity (HEK cells [3]): increases as cell density increases; cytotoxicity in 0% FBS (HEK cells [4]): does display cytotoxicity; cytotoxicity in 10%, 25%, and 50% FBS (HEK cells [4]): completely noncytotoxic
RRGWNLALTLTYGRR-NH2 [*NATT*, RRGWNLALTLTYGRR]	6.15	5.92	4.37	cell viability in the presence and absence of virus (HEK cells [5]): no difference
RRGWNLRLRLVYGRR-NH2 [*NRRV*, RRGWNLRLRLVYGRR]	5.10	–	4.82	–
RRGWRLNLNLYYGRR-NH2 [*RNNY*, RRGWRLNLNLYYGRR]	5.64	5.68	4.72	–
RRGWTLNLTLNYGRR-NH2 [*TNTN*, RRGWTLNLTLNYGRR]	5.21	5.96	4.66	–
RRGWVLDLVLYYGRR-NH2 [*VDVY*, RRGWVLDLVLYYGRR]	4.92	5.30	< 4.00	–
RRRRRRRRRWC-NH2 [Arg9, RRRRRRRRRWC, reference compound]	5.17	< 4.00	< 4.12	–
RRWLLLLNLLLLWRR-NH2 [TL4NdG, RRWLLLLNLLLLWRR]	–	–	–	cell viability, Vero E6 cells (Vero E6 cells): High cell viability; pEC50 (human adenovirus 5): < 5.00; effect of cell density on cytotoxicity (HEK cells [3]): remained consistent as cell density increases; effect of serum concentration on cytotoxicity (HEK cells [4]): essentially unchanged by serum concentration; inhibition of LASVpv at 50 μM peptide [6]: greater than 50%; cytotoxicity against HEK cells (HEK 293T/17 cells): least cytotoxic test peptide; also recorded: much less cytotoxic than TL3; also recorded: least cytotoxic peptide tested
RRWLLLLRLLLLWRR-NH2 [TL4dG, RRWLLLLRLLLLWRR]	–	–	–	cytotoxicity against HEK cells (HEK 293T/17 cells): less cytotoxic than TL3
WALRLYLGVY-NH2 [ARYV, WALRLYLGVY]	5.43	5.10	–	–
WVLVLRLGY-NH2 [VVRG, WVLVLRLGY]	5.21	–	–	–
